The supplement of paper PMC11451515

System: SEM cells
Assay: cell viability relative to DMSO control; higher = less cytotoxic
Settings: 48 h
In short: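 NOMO1 or SEM (500 cells/well) or P12-Ichikawa (1000 cells/well) leukemia cells were adapted for at least four passages in each medium. They were seeded in 1536-well plates (5 μl) and pin-dosed with library compounds in DMSO over an 11-point threefold series, 47 μM to 0.79 nM. CellTiter-Glo One luminescence was read after 48 h at 37°C. Viability is the per-plate percentage relative to DMSO wells, with cell-free wells as background.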

[1] = HPLM + 10% dialyzed FBS, 0.000781 µM
[2] = HPLM + 10% dialyzed FBS, 0.00234 µM
[3] = HPLM + 10% dialyzed FBS, 0.00702 µM
[4] = HPLM + 10% dialyzed FBS, 0.0211 µM
[5] = HPLM + 10% dialyzed FBS, 0.0632 µM
[6] = HPLM + 10% dialyzed FBS, 0.19 µM
[7] = HPLM + 10% dialyzed FBS, 0.569 µM
[8] = HPLM + 10% dialyzed FBS, 1.71 µM
[9] = HPLM + 10% dialyzed FBS, 5.12 µM
[10] = HPLM + 10% dialyzed FBS, 15.4 µM
[11] = HPLM + 10% dialyzed FBS, 46.1 µM
[12] = RPMI 5 mM glucose + 10% FBS, 0.000781 µM
[13] = RPMI 5 mM glucose + 10% FBS, 0.00234 µM
[14] = RPMI 5 mM glucose + 10% FBS, 0.00702 µM
[15] = RPMI 5 mM glucose + 10% FBS, 0.0211 µM
[16] = RPMI 5 mM glucose + 10% FBS, 0.0632 µM
[17] = RPMI 5 mM glucose + 10% FBS, 0.19 µM
[18] = RPMI 5 mM glucose + 10% FBS, 0.569 µM
[19] = RPMI 5 mM glucose + 10% FBS, 1.71 µM
[20] = RPMI 5 mM glucose + 10% FBS, 5.12 µM
[21] = RPMI 5 mM glucose + 10% FBS, 15.4 µM
[22] = RPMI 5 mM glucose + 10% FBS, 46.1 µM
[23] = RPMI 5 mM glucose + 10% dialyzed FBS, 0.000781 µM
[24] = RPMI 5 mM glucose + 10% dialyzed FBS, 0.00234 µM
[25] = RPMI 5 mM glucose + 10% dialyzed FBS, 0.00702 µM
[26] = RPMI 5 mM glucose + 10% dialyzed FBS, 0.0211 µM
[27] = RPMI 5 mM glucose + 10% dialyzed FBS, 0.0632 µM
[28] = RPMI 5 mM glucose + 10% dialyzed FBS, 0.19 µM
[29] = RPMI 5 mM glucose + 10% dialyzed FBS, 0.569 µM
[30] = RPMI 5 mM glucose + 10% dialyzed FBS, 1.71 µM
[31] = RPMI 5 mM glucose + 10% dialyzed FBS, 5.12 µM
[32] = RPMI 5 mM glucose + 10% dialyzed FBS, 15.4 µM
[33] = RPMI 5 mM glucose + 10% dialyzed FBS, 46.1 µM

How did the cell viability [1] turn out when `CC[C@H](/C=C/[C@@H](C)[C@H]1CC[C@H]2[C@@H]3CC=C4C[C@@H](O)CC[C@]4(C)[C@H]3CC[C@]12C)C(C)C` was run?
The cell viability was 100%.

And the cell viability [2]?
The cell viability was 77.3%.

And the cell viability [3]?
The cell viability was 94.8%.

What about the cell viability [4] of the same molecule?
The cell viability was 94.8%.

What about the cell viability [5] of the same molecule?
The cell viability was 86.4%.

What about the cell viability [6] of the same molecule?
Its cell viability is 108%.

And the cell viability [7]?
Its cell viability is 81.7%.

What about the cell viability [8] of the same molecule?
Its cell viability is 100%.

And the cell viability [9]?
Its cell viability is 95.3%.

And the cell viability [10]?
The cell viability was 79.1%.

And the cell viability [11]?
Its cell viability is 89.3%.

And the cell viability [12]?
Its cell viability is 102%.

And the cell viability [13]?
The cell viability was 83.8%.

And the cell viability [14]?
The cell viability was 103%.

And the cell viability [15]?
The cell viability was 95.2%.

What about the cell viability [16] of the same molecule?
The cell viability was 101%.

And the cell viability [17]?
The cell viability was 96.8%.

And the cell viability [18]?
The cell viability was 93.3%.

And the cell viability [19]?
Its cell viability is 104%.

And the cell viability [20]?
Its cell viability is 105%.

What about the cell viability [21] of the same molecule?
Its cell viability is 87.4%.

What about the cell viability [22] of the same molecule?
Its cell viability is 84.2%.

What about the cell viability [23] of the same molecule?
The cell viability was 98%.

And the cell viability [24]?
The cell viability was 92.7%.

And the cell viability [25]?
Its cell viability is 93.3%.

What about the cell viability [26] of the same molecule?
Its cell viability is 104%.

And the cell viability [27]?
The cell viability was 111%.

And the cell viability [28]?
Its cell viability is 90.6%.

And the cell viability [29]?
The cell viability was 93.5%.

What about the cell viability [30] of the same molecule?
The cell viability was 108%.

And the cell viability [31]?
Its cell viability is 94.1%.

What about the cell viability [32] of the same molecule?
Its cell viability is 87.6%.

And the cell viability [33]?
Its cell viability is 93.5%.

What does the source list for `O=C(C=CC#Cc1cccc(N[S+](=O)([O-])c2ccccc2)c1)NO`?
cell viability [1]: 119%; cell viability [2]: 103%; cell viability [3]: 113%; cell viability [4]: 119%; cell viability [5]: 122%; cell viability [6]: 109%; cell viability [7]: 107%; cell viability [8]: 87%; cell viability [9]: 13.1%; cell viability [10]: 4.27%; cell viability [11]: 4.02%; cell viability [12]: 112%; cell viability [13]: 80.6%; cell viability [14]: 103%; cell viability [15]: 111%; cell viability [16]: 109%; cell viability [17]: 89.3%; cell viability [18]: 101%; cell viability [19]: 84.4%; cell viability [20]: 10.9%; cell viability [21]: 4.75%; cell viability [22]: 4.28%; cell viability [23]: 105%; cell viability [24]: 94.8%; cell viability [25]: 102%; cell viability [26]: 100%; cell viability [27]: 120%; cell viability [28]: 117%; cell viability [29]: 115%; cell viability [30]: 80.2%; cell viability [31]: 7.4%; cell viability [32]: 5.47%; cell viability [33]: 5.05%

With `CC(C)N[C@@H]1CCn2c(=O)[nH]c3cccc(c32)[C@H]1O` as the molecule, how does the cell viability [1] read?
The cell viability was 107%.

And the cell viability [2]?
Its cell viability is 119%.

And the cell viability [3]?
Its cell viability is 101%.

What about the cell viability [4] of the same molecule?
Its cell viability is 104%.

What about the cell viability [5] of the same molecule?
The cell viability was 112%.

And the cell viability [6]?
Its cell viability is 108%.

What about the cell viability [7] of the same molecule?
The cell viability was 120%.

What about the cell viability [8] of the same molecule?
Its cell viability is 112%.

And the cell viability [9]?
Its cell viability is 122%.

And the cell viability [10]?
The cell viability was 122%.

What about the cell viability [11] of the same molecule?
The cell viability was 100%.

What about the cell viability [23] of the same molecule?
Its cell viability is 102%.

What about the cell viability [24] of the same molecule?
Its cell viability is 112%.

And the cell viability [25]?
The cell viability was 113%.

And the cell viability [26]?
Its cell viability is 122%.

What about the cell viability [27] of the same molecule?
Its cell viability is 125%.

And the cell viability [28]?
The cell viability was 123%.

And the cell viability [29]?
The cell viability was 107%.

And the cell viability [30]?
The cell viability was 117%.

And the cell viability [31]?
Its cell viability is 101%.

What about the cell viability [32] of the same molecule?
The cell viability was 125%.

What about the cell viability [33] of the same molecule?
The cell viability was 102%.

Which results are given for `CC(C)c1noc(N2CCC(COc3ccc(-c4ccc([S+](C)(=O)[O-])cc4)nc3)CC2)n1`?
cell viability [1]: 131%; cell viability [2]: 81.5%; cell viability [3]: 115%; cell viability [4]: 122%; cell viability [5]: 132%; cell viability [6]: 32.7%; cell viability [7]: 128%; cell viability [8]: 84.8%; cell viability [9]: 16.3%; cell viability [10]: 122%; cell viability [11]: 109%; cell viability [12]: 111%; cell viability [13]: 73.4%; cell viability [14]: 140%; cell viability [15]: 126%; cell viability [16]: 134%; cell viability [17]: 23.1%; cell viability [18]: 120%; cell viability [19]: 53.1%; cell viability [20]: 12.9%; cell viability [21]: 114%; cell viability [22]: 112%; cell viability [23]: 111%; cell viability [24]: 56%; cell viability [25]: 136%; cell viability [26]: 138%; cell viability [27]: 115%; cell viability [28]: 28.8%; cell viability [29]: 111%; cell viability [30]: 60.4%; cell viability [31]: 10.3%; cell viability [32]: 100%; cell viability [33]: 104%
